Assay results as given in patent publication US10421755B2, “Salts of aza-bicyclic di-aryl ethers and methods to make them or their precursors” (Novartis AG, priority 2011, dated 2019).

Key:
[1] = Oral bioavailability and brain penetration in mice; assay type: in vivo
Protocol: Assay: Compounds were orally (30 μmol/kg) administered. Male mice (30-35 g, OF1/ICstrain) were sacrificed at indicated time points after oral administration. Trunk-blood was collected in EDTA-containing tubes and the brain was removed and immediately frozen on dry ice. To 100 μl plasma 10 μl internal standard (1.0 μmol of a compound with solubility and ionization properties similar to test compounds) was added and extracted three times with 500 μl dichloromethane. The combined extracts were then dried under a stream of nitrogen and re-dissolved in 100 μl acetonitrile/water (70% acetonitrile). Brains were weighed and homogenized in water (1:5 w/v). Two 100 μl aliquots of each homogenate+10 μl of internal standard (same standard as used for the plasma samples) were extracted three times with 500 μl dichloromethane and further processed as the plasma samples. Samples were separated on Beckmann high-performance liquid chromatography equipment system with an autosampler (Gilson 233XL). A 10 min linear gradient (10-70%) of acetonitrile containing 0.5% (v/v) formic acid was used to elute the compounds from Nucleosil CC-125/2 C18 reversed phase (Machery&Nagel) column.
The limit of detection (LOD), defined as the lowest concentration of the extracted standard sample with a signal to noise ratio of ˜3.

[2] = Loss on drying / initial water content; assay type: physicochemical; design: Initial water content: unit not given here

## Cc1ccc(-c2ccc(O[C@H]3CN4CCC3CC4)cn2)cc1 [Compound A, (R)-3-(6-(4-methylphenyl)-pyridin-3-yloxy)-1-aza-bicyclo[2.2.2]octane]
[1]; 30 μmol/kg p.o., 0.25 hour
  Brain (pmoles/g ± SD): 4631 ± 1717 pmol/g
[1]; 30 μmol/kg p.o., 0.5 hour
  Brain (pmoles/g ± SD): 11430 ± 3441 pmol/g
[1]; 30 μmol/kg p.o., 1 hour
  Brain (pmoles/g ± SD): 14948 ± 4716 pmol/g
[1]; 30 μmol/kg p.o., 4 hour
  Brain (pmoles/g ± SD): 1272 ± 715 pmol/g
[1]; 30 μmol/kg p.o., 8 hour
  Brain (pmoles/g ± SD): 58 ± 27 pmol/g
[1]; acute oral dose of 30 μmol/kg
  time for which brain concentration is beyond (or at least equal) to the EC50 at the α7-nAChR: at least 4 hours
[1]; male, OF1/IC, mouse, plasma, po, 30 μmol/kg p.o., 0.25 hour, read-out: Plasma (pmoles/ml ± SD)
  concentration at 0.25 h: 573 ± 234 pmol/mL
[1]; male, OF1/IC, mouse, plasma, po, 30 μmol/kg p.o., 0.5 hour, read-out: Plasma (pmoles/ml ± SD)
  concentration at 0.5 h: 559 ± 143 pmol/mL
[1]; male, OF1/IC, mouse, plasma, po, 30 μmol/kg p.o., 1 hour, read-out: Plasma (pmoles/ml ± SD)
  concentration at 1 h: 322 ± 135 pmol/mL
[1]; male, OF1/IC, mouse, plasma, po, 30 μmol/kg p.o., 4 hour, read-out: Plasma (pmoles/ml ± SD)
  concentration at 4 h: 20 ± 16 pmol/mL
[1]; male, OF1/IC, mouse, plasma, po, 30 μmol/kg p.o., 8 hour, read-out: Plasma (pmoles/ml ± SD)
  concentration at 8 h: 3.4 ± 0.8 pmol/mL
[2]
  Loss on drying (LOD) of a sample: 0.1%
[2]; comparison table, Example 7
  Initial water content: 0.1
